PubChem BioAssay (NCI)
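Dose response: 5 concentrations. Exposure: 48 h. Format: 96-well plates. Endpoint: linear interpolation; highest concentration if not reached. GI50 = concentration required for 50% inhibition of growth. TGI denotes the concentration required for complete inhibition of growth.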

Legend:
Assay in all cases: NCI tumour cell line growth inhibition, 48 h
[1] = system: HOP-92 NSCLC
[2] = system: MOLT-4 leukemia
[3] = system: SF-295 CNS
[4] = system: RPMI-8226 leukemia
[5] = system: M14 melanoma
[6] = system: SK-OV-3 ovarian
[7] = system: MALME-3M melanoma
[8] = system: NCI/ADR-RES ovarian
[9] = system: SW-620 colon
[10] = system: HL-60(TB) leukemia

Row | SMILES | GI50 [1] [µM] | TGI [1] [µM] | GI50 [2] [µM] | TGI [2] [µM] | GI50 [3] [µM] | TGI [3] [µM] | GI50 [4] [µM] | TGI [4] [µM] | GI50 [5] [µM] | TGI [5] [µM] | GI50 [6] [µM] | TGI [6] [µM] | GI50 [7] [µM] | TGI [7] [µM] | GI50 [8] [µM] | TGI [8] [µM] | GI50 [9] [µM] | TGI [9] [µM] | TGI [10] [µM] | GI50 [10] [µM]
1 | O=C1C(Cl)=C(Nc2cccc(Cl)c2)C(=O)N1Cc1ccccc1 | 5.36 | 26.3 | 3.38 | > 100 | 6.28 | 20.1 | 1.37 | 7.9 | 6.73 | 22.5 | 15.7 | 35 | 5.12 | 20.1 | 6.87 | 24.7 |  |  |  | 
2 | CCOC(=O)c1c2c(c(O)c3ccccc3c(O)n(Cc3ccc(OC)cc3)c1C)C(=O)C=CC2=O | > 100 | > 100 | 76 | > 100 | > 100 | > 100 | > 100 | > 100 | > 100 | > 100 | > 100 | > 100 | > 100 | > 100 | > 100 | > 100 | > 100 | > 100 |  | 
3 | Cc1ccc(NC(=O)c2cc3cc(N=Nc4ccc(Br)cc4)ccc3oc2=O)cc1 |  | > 100 |  | > 100 |  | > 100 |  | > 100 |  |  |  | > 100 |  | > 100 |  |  |  | > 100 | > 100 | 
4 | COc1ccc(OC)c(/C=N/NC(=O)Cc2csc3nc(-c4ccc(Br)cc4)cn23)c1 | 13.9 | 35.5 | 3.47 | 8.08 | 12.3 | 34.6 | 10.3 | > 100 | 15.1 | 72.1 | 57.7 | > 100 |  |  | 12.8 | 35.4 | 6.44 | 49.1 |  | 
5 | CC(C)/C=C1\CCC(CN2CCCC2)C1=O (stereo not given) |  | 36.1 |  | 14.9 |  | > 94.5 |  | 3.5 |  | 24.2 |  | > 100 |  | 17.1 |  |  |  | 7.94 | 14.4 | 
6 | COc1ccc(C2CC(=O)c3c(O)cc(O)cc3O2)cc1O (stereo not given) |  |  |  | > 100 |  | > 100 |  | > 100 |  | > 100 |  | > 100 |  | > 100 |  |  |  | > 100 | > 100 | 
7 | O=C1[C@@H]2C(c3ccccc3Br)=NO[C@@H]2C(=O)N1c1ccc(Cc2ccc(N3C(=O)[C@H]4C(c5ccccc5Br)=NO[C@H]4C3=O)cc2)cc1 |  | > 100 |  | > 100 |  | > 100 |  | > 100 |  | > 100 |  | > 100 |  | > 100 |  |  |  | > 100 | > 100 | 
8 | CS/C(=N\C(=S)N(C)C)N(c1ccccc1)c1nc(=[N+](C)C)ss1 |  | 51.2 |  | 18.3 |  | 57.4 |  | 6.24 |  | 16.7 |  | > 100 |  | 7.44 |  |  |  | 16.3 | 5.98 | 
9 | Cc1ccccc1NC(=O)C(=O)C(C#N)c1ccc(Cl)cc1 (stereo not given) |  | > 100 |  | > 100 |  | > 100 |  | 48.8 |  | > 100 |  | > 100 |  | > 100 |  |  |  | 31.2 | > 100 | 
10 | COc1cc2c(cc1O)CC[C@@H]1[C@@H]2CC[C@]2(C)[C@@H](NCCN(C)C)CC[C@@H]12 | 0.124 | 0.742 | 0.187 | 0.695 | 0.163 | 0.61 | 0.159 | 0.665 | 0.0822 | 0.213 | 0.194 | 0.667 | 0.19 | 0.669 |  |  | 0.14 | 0.556 | 0.675 | 0.173
11 | COc1c(C=O)c2c(c(OC)c1OC)-c1ccc(OC)c(=O)cc1[C@@H](NC(C)=O)CC2 |  | 7.18 |  | > 17.8 |  | 0.449 |  | 47.2 |  | > 25.2 |  | 23.1 |  | > 100 |  |  |  | > 100 | 0.0717 | 
12 | Cc1ccc(S(=O)(=O)N[C@H](C(=O)O)c2ccccc2)cc1 |  | > 100 |  | > 100 |  | > 100 |  | > 100 |  | > 100 |  | > 100 |  | > 100 |  |  |  | > 100 | > 100 | 
13 | CCOC(=O)Nc1cc2nnc(-c3ccccc3)nc2c(N)n1 |  | 85.2 |  |  |  | 15.2 |  | 74.3 |  | > 100 |  | 39.9 |  | 87.7 |  |  |  | 42.2 | 37.5 | 
14 | COc1cccc2c1C(=O)C=CC2=O |  | 3.75 |  | 2.34 |  | 29.2 |  | 7.23 |  | 20.7 |  | 36.2 |  | 30.6 |  |  |  | 23.6 | 1.09 | 
